Source: ChEMBL document CHEMBL3779776, “Synthesis and biological evaluation of 2-aroylbenzofurans, rugchalcones A, B and their derivatives as potent anti-inflammatory agents” (Bioorg Med Chem Lett, 2016)
Values belong to the compound of their own block, whether it stands above or below them.

What was measured:
[1] = system: RAW264.7; experiment: Antiinflammatory activity in mouse RAW264.7 cells assessed as inhibition of LPS-induced NO production at 10 uM after 18 hrs by Griess assay relative to control; type: functional; conditions: RAW264.7, 18 h
[2] = system: RAW264.7; experiment: Antiinflammatory activity in mouse RAW264.7 cells assessed as inhibition of LPS-induced NO production at 1 uM after 18 hrs by Griess assay relative to control; type: functional; conditions: RAW264.7, 18 h
[3] = Cytotoxicity against mouse RAW264.7 cells assessed as cell viability at 1 uM after 24 hrs by MTS assay relative to control; type: cell-based; conditions: read-out: Activity
[4] = Cytotoxicity against mouse RAW264.7 cells assessed as cell viability at 10 uM after 24 hrs by MTS assay relative to control; type: cell-based; conditions: read-out: Activity
[5] = system: RAW264.7; experiment: Inhibition of LPS-induced iNOS expression in mouse RAW264.7 cells at 10 uM after 18 hrs by Western blot method relative to LPS; type: functional
[6] = system: RAW264.7; experiment: Antiinflammatory activity in mouse RAW264.7 cells assessed as inhibition of LPS-induced NO production after 18 hrs by Griess assay; type: functional, cell-based; conditions: RAW264.7, 18 h

Structure (SMILES): COc1ccc(C(=O)c2cc3cc(O)c(OC)cc3o2)cc1
inhibition at 10 µM [1]: 43%
inhibition at 1 µM [2]: 16.2%
viability at 24 h, 1 µM [3]: 98.1%
viability at 24 h, 10 µM [4]: 100%
fold change (FC) [5]: 0.52
IC50 [6]: 10.8 µM

Structure (SMILES): COc1ccc(C(=O)c2cc3cc(OC)c(OC)cc3o2)cc1
inhibition at 10 µM [1]: 29.8%
inhibition at 1 µM [2]: 9.5%
viability at 24 h, 1 µM [3]: 105%
viability at 24 h, 10 µM [4]: 98.6%
fold change (FC) [5]: 0.65
IC50 [6]: 11.8 µM

Structure (SMILES): COc1ccc(C(=O)c2cc3cc(OC)c(O)cc3o2)cc1
inhibition at 10 µM [1]: 29.7%
inhibition at 1 µM [2]: 7.8%
viability at 24 h, 1 µM [3]: 93.2%
viability at 24 h, 10 µM [4]: 91.8%
fold change (FC) [5]: 0.77
IC50 [6]: 13.3 µM

Structure (SMILES): O=C(c1ccc(O)cc1)c1cc2cc(O)c(O)cc2o1
inhibition at 10 µM [1]: 74.3%
inhibition at 1 µM [2]: 42.9%
viability at 24 h, 1 µM [3]: 106%
viability at 24 h, 10 µM [4]: 100%
fold change (FC) [5]: 0.36
IC50 [6]: 0.99 µM

More lines, in order of falling IC50 [6], values ahead:

IC50 [6]: 10.4 µM
Structure (SMILES): COc1cc2cc(C(=O)c3ccc(O)cc3)oc2cc1OC
inhibition at 10 µM [1]: 25.8%
inhibition at 1 µM [2]: 8.6%
viability at 24 h, 1 µM [3]: 106%
viability at 24 h, 10 µM [4]: 102%
fold change (FC) [5]: 0.46

IC50 [6]: 4.13 µM
Structure (SMILES): COc1cc2oc(C(=O)c3ccc(O)cc3)cc2cc1O
inhibition at 10 µM [1]: 99.3%
inhibition at 1 µM [2]: 0%
viability at 24 h, 1 µM [3]: 97.9%
viability at 24 h, 10 µM [4]: 93.1%
fold change (FC) [5]: 0.26

IC50 [6]: 2.69 µM
Structure (SMILES): CNC(=N)NCCC[C@H](N)C(=O)O [TILARGININE]
inhibition at 10 µM [1]: 92.4%
inhibition at 1 µM [2]: 20.9%
viability at 24 h, 1 µM [3]: 98.6%
viability at 24 h, 10 µM [4]: 97.6%

IC50 [6]: 1.9 µM
Structure (SMILES): COc1ccc(C(=O)c2cc3cc(O)c(O)cc3o2)cc1
inhibition at 10 µM [1]: 96.8%
inhibition at 1 µM [2]: 19.7%
viability at 24 h, 1 µM [3]: 95.1%
viability at 24 h, 10 µM [4]: 101%
fold change (FC) [5]: 0.19

IC50 [6]: 0.57 µM
Structure (SMILES): COc1cc2cc(C(=O)c3ccc(O)cc3)oc2cc1O
inhibition at 10 µM [1]: 99.6%
inhibition at 1 µM [2]: 54.2%
viability at 24 h, 1 µM [3]: 98.1%
viability at 24 h, 10 µM [4]: 95.9%
fold change (FC) [5]: 0.18
